Assay results published in US8168667B2 (Galapagos NV, priority 2006, dated 2012).
Like-named read-outs stand apart in the source and are kept apart here.

Target: T1, human androgen receptor (hAR) (Homo sapiens, UniProt P10275)
T1 sequence (P10275 1-920): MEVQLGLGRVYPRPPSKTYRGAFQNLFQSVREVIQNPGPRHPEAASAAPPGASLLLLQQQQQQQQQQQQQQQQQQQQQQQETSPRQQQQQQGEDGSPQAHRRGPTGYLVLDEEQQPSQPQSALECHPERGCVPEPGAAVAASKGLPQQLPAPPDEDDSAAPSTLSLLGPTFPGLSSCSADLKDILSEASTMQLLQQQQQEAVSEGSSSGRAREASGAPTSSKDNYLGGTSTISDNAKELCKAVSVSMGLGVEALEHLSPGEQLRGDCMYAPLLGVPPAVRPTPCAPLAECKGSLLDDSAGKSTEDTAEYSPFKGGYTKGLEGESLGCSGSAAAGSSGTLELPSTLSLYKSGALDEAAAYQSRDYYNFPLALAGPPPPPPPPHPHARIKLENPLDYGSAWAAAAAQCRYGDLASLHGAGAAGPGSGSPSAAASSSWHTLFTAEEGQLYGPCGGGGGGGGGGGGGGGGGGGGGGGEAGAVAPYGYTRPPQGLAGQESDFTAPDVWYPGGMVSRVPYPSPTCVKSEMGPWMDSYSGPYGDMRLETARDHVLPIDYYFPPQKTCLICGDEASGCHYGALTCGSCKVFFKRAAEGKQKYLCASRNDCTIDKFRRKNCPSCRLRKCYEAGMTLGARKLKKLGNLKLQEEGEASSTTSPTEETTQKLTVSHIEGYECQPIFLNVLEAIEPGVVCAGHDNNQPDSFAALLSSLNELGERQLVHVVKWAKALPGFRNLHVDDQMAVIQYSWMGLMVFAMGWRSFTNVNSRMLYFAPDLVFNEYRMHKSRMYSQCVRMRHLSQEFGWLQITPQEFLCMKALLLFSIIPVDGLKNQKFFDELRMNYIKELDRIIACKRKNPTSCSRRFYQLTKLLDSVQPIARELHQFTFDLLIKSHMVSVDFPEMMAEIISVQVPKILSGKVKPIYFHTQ
Test: Functional response test: hAR transactivation (luciferase reporter) in HALP2 cells
Assay type: cell-based
Details: for EC50: agonism, HALP2 cells (HeLa, hAR + ARE-luciferase), 20 hours at 37° C.
Excerpt: This test constitutes a method of identifying pure or partial agonists which mimic the effects of natural hormones, such as DHT (dihydrotestosterone) in the present case or, on the other hand, antagonists which inhibit them.
For this transactivation test, plasmids encoding a reporter gene and the human androgen receptor (hAR) are introduced together by transfection into the HeLa cell line. The reporter plasmid contains luciferase cDNA under the control of the AREs contained in the promoter sequences of the probasin gene (3xpbAREminicoll-luciferase/pGL3-puro). The expression of the reporter gene constitutes an indication of the transcriptional activity of hAR. It also encodes a protein allowing the cells expressing it to resist a treatment with puromycin. The plasmid encoding hAR contains the cDNA of hAR under the control of the Cytomegalovirus (CMV) promoter. It also encodes a protein allowing the cells expressing it to resist a treatment with neomycin. The treatment of cells with increasing amounts of potentially agonistic compounds will increase the expression of the reporter gene. To detect antagonists, on the other hand, increasing doses of test compounds are tested in the presence of […] of DHT. The expression of the reporter gene, which is constant for each dose of DHT, decreases when the concentration of the test compounds increases.
For this test, HeLa cells were obtained from the American Type Culture Collection (Rockville, Md.) and cultivated in DMEM medium containing 4.5 g/l of glucose, supplemented with Glutamax and with nonessential amino-acids and with 10% of foetal calf serum (SVF; Dominique Dutscher).
On the day before transfection, a million cells were seeded in DMEM medium without phenol red, supplemented with Glutamax and with desteroided SVF (5%) in Petri dishes. The cells were transfected with 4 μg of the puromycin resistance plasmids pcDNA3-hAR and 3xpbAREminicoll-luciferase/pGL3 using the reagent “Lipofectamine plus” (Invitrogen), following the supplier's recommendations. The day after transfection, the cells were seeded to different cell densities (10,000 to 100,000 cellules per Petri dish). Two days after transfection, the transfected cells were selected in DMEM medium without phenol red, supplemented with Glutamax and with desteroided SVF (5%) containing 400 μg/mL of G418 (Invitrogen) and 150 ng/mL of puromycin (Sigma). The culture medium was renewed weekly until resistant clones appeared. The resistant clones were removed and amplified before being tested for their functional response. […]
The functional response test was conducted on 96-well plates. The HALP2 cells were seeded (30,000 cells per well) 24 hours before the phase of stimulation in DMEM medium containing 4.5 g/L of glucose, supplemented with Glutamax and nonessential amino-acids, and with desteroided SVF (5%).
On the day of stimulation, the seeding medium was replaced by DMEM medium without phenol red, supplemented with Glutamax and with desteroided SVF (5%). […] The cells were placed in contact with the compounds for 20 hours at 37° C.

[1] = antagonism, concentration which increases the EC50 of the DHT by a factor of 2, Schild regression, HALP2 cells

| SMILES | KSchild (nM) potency | EC50 | KSchild (nM) potency [1] |
| --- | --- | --- | --- |
| N#CCCN1C(=O)N(c2ccc(Cl)c(C(F)(F)F)c2)C(=O)C1c1ccc(O)cc1 (stereo not shown) [Example 125] | 30 nM |  |  |
| N#CCN1C(=O)N(c2ccc(F)c(C(F)(F)F)c2)C(=O)C1c1ccc(O)cc1 (stereo not shown) [Example 94] |  | 300 nM | 300 nM |
| CCOC(=O)CCN1C(=O)N(c2ccc(F)c(C(F)(F)F)c2)C(=O)C1c1ccc(O)cc1 (stereo not shown) [Example 78] |  | 94.9 nM | 77.46 nM |
| CCCC1(c2ccc(O)cc2)C(=O)N(c2ccc(C#N)c(C(F)(F)F)c2)C(=O)N1C (stereo not shown) [Example 182.1, 4-[2,5-dioxo-4-(4-hydroxyphenyl)-3-methyl-4-propylimidazolidin-1-yl]-2-trifluoromethylbenzonitrile] | 15 nM |  |  |
| COCCOCN1C(=O)N(c2ccc(C#N)c(C(F)(F)F)c2)C(=O)C1(C)c1ccc(O)cc1 (stereo not shown) [Example 238, 4-[2,5-dioxo-4-(4-hydroxyphenyl)-3-[(2-methoxyethoxy)methyl]-4-methylimidazolidin-1-yl]-2-trifluoromethylbenzonitrile] | 15 nM |  |  |
| O=C1C(c2ccc(O)cc2)N(Cc2ccc3c(c2)OCO3)C(=O)N1c1ccc(Cl)c(C(F)(F)F)c1 (stereo not shown) [Example 101] |  | 245 nM | 244.95 nM |
| CN1C(=O)N(c2ccc(Cl)c(Cl)c2)C(=O)C1c1cccc(O)c1 (stereo not shown) [Example 152, 1-(3,4-dichlorophenyl)-4-(3-hydroxyphenyl)-3-methylimidazolidine-2,5-dione] |  | 4 nM | 4 nM |
| CN(C)CCN1C(=O)N(c2cccc(C(F)(F)F)c2)C(=O)C1c1ccc(O)cc1 (stereo not shown) [Example 120] |  | 424 nM | 424.26 nM |
| CC1(c2ccc(O)cc2)C(=O)N(c2ccc(C#N)c(C(F)(F)F)c2)C(=O)N1CCC#N (stereo not shown) [Example 149] | 60 nM |  |  |
| COc1ccc(C2(C)C(=O)N(c3ccc(C#N)c(C(F)(F)F)c3)C(=O)N2C)c(C)c1 (stereo not shown) [Example 163, 4-[3,4-dimethyl-2,5-dioxo-4-(4-methoxy-2-methylphenyl)imidazolidin-1-yl]-2-trifluoromethylbenzonitrile] | 80 nM |  |  |
| Cc1cc(Br)ccc1N1C(=O)N(C)C(C)(c2ccc(O)cc2)C1=O (stereo not shown) [Example 27, 1-(4-bromo-2-methylphenyl)-3,4-dimethyl-4-(4-hydroxyphenyl)imidazolidine-2,5-dione] |  | 13.4 nM | 10.63 nM |
| C#CCN1C(=O)N(c2ccc(F)c(Cl)c2)C(=O)C1c1ccc(O)cc1 (stereo not shown) [Example 70] |  | 20 nM | 20 nM |
| C#CCN1C(=S)N(c2ccc(Cl)c(Cl)c2)C(=O)C1(C)c1ccc(O)cc1 (stereo not shown) [Example 41, 1-(3,4-dichlorophenyl)-4-(4-hydroxyphenyl)-4-methyl-3-(2-propynyl)-2-thioxoimidazolidin-5-one] |  | 25.3 nM | 15.49 nM |
| CN(C)CCN1C(=O)N(c2ccc(Cl)c(C(F)(F)F)c2)C(=O)C1c1ccc(O)cc1 (stereo not shown) [Example 117] |  | 77.5 nM | 77.46 nM |
| O=C1C(c2ccc(O)cc2)N(Cc2ccsc2)C(=O)N1c1ccc([N+](=O)[O-])cc1 (stereo not shown) [Example 53] | 9.74 nM |  |  |
| C=CCOCC1(c2ccc(OC)cc2)C(=O)N(c2ccc(Cl)c(Cl)c2)C(=O)N1C (stereo not shown) [Example 171, 1-(3,4-dichlorophenyl)-4-(4-methoxyphenyl)-3-methyl-4-[(2-propenyloxy)methyl]-imidazolidine-2,5-dione] |  | 600 nM |  |
| CCCN1C(=O)N(c2ccc(Cl)c(C(F)(F)F)c2)C(=O)C1c1ccc(O)cc1 (stereo not shown) [Example 57] | 34.64 nM |  |  |
| COC(=O)CCN1C(=O)N(c2ccc(C#N)c(C(F)(F)F)c2)C(=O)C1(C)c1ccc(O)cc1 (stereo not shown) [Example 234, 4-[2,5-dioxo-4-(4-hydroxyphenyl)-3-[2-(methoxycarbonyl)ethyl]-4-methylimidazolidin-1-yl]-2-trifluoromethylbenzonitrile] | 15 nM |  |  |
| C#CCN1C(=O)N(c2ccc(Cl)c(Cl)c2)C(=O)C1c1ccc(O)cc1 (stereo not shown) [Example 66] |  | 24.5 nM | 21.21 nM |
| O=C1C(c2ccc(O)cc2)N(Cc2ccsc2)C(=S)N1c1cccc(Cl)c1Cl (stereo not shown) [Example 17, 1-(2,3-dichlorophenyl)-4-(4-hydroxyphenyl)-3-[(thiophen-3-yl)methyl]-2-thioxo-imidazolidin-5-one] |  | 2000 nM | 2000 nM |
| Cc1c(N2C(=O)N(C)C(C)(c3ccc(O)cc3)C2=O)ccc(C#N)c1C(F)(F)F (stereo not shown) [Example 38, 4-[3,4-dimethyl-2,5-dioxo-4-(4-hydroxyphenyl)imidazolidin-1-yl]-3-methyl-2-trifluoromethylbenzonitrile] | 3 nM |  |  |
| C=CCN1C(=O)N(c2ccc([N+](=O)[O-])cc2)C(=O)C1c1ccc(O)cc1 (stereo not shown) [Example 65] | 5.43 nM |  |  |
| C#CCN1C(=O)N(c2ccc(F)c(C(F)(F)F)c2)C(=O)C1c1ccc(O)cc1 (stereo not shown) [Example 69] |  | 42.4 nM | 42.43 nM |
| COc1cccc(C2C(=O)N(c3ccc(Cl)c(Cl)c3)C(=O)N2C)c1 (stereo not shown) [Example 151, 1-(3,4-dichlorophenyl)-4-(3-methoxyphenyl)-3-methylimidazolidine-2,5-dione] |  | 42.4 nM | 42.43 nM |
| C=CCN1C(=O)N(c2ccc(F)c(F)c2)C(=O)C1c1ccc(O)cc1 (stereo not shown) [Example 14, 1-(3,4-difluorophenyl)-4-(4-hydroxyphenyl)-3-(2-propenyl)imidazolidine-2,5-dione] |  | 30 nM | 30 nM |
| CCOCCCN1C(=O)N(c2ccc(C#N)c(C(F)(F)F)c2)C(=O)C1c1ccc(O)cc1 (stereo not shown) [Example 82] | 30 nM |  |  |
| CCCN1C(=O)N(c2ccc(F)c(Cl)c2)C(=O)C1c1ccc(O)cc1 (stereo not shown) [Example 11, 1-(3-chloro-4-fluorophenyl)-4-(4-hydroxyphenyl)-3-propylimidazolidine-2,5-dione] |  | 80 nM | 80 nM |
| CN1C(=O)N(c2ccc(C#N)c(C(F)(F)F)c2)C(=O)[C@@]1(CF)c1ccc(O)cc1 [Example 177.2, (R)-4-[4-fluoromethyl-4-(4-hydroxyphenyl)-3-methyl-2,5-dioxoimidazolidin-1-yl]-2-trifluoromethylbenzonitrile] | 40.4 nM |  |  |
